According to patent publication US12419862B2, “Use of a cathepsin s inhibitor against the formation of anti-drug antibodies” (Hoffmann-La Roche Inc., priority 2018, dated 2025):

How the values were obtained:
[1] = test system: IgG response to murine surrogate FAP-OX40; assay: ADA against murine surrogate FAP-OX40 in wild-type mice, ELISA (Example 6); type: in vivo, C57BL/6 mice; conditions: 40 mg/kg/day via food admix from one week before first immunization until day 23
Description: 10-week-old female mice C57BL/6 were purchased from Charles River Laboratories (Germany) and housed at the animal facilities in room with air-conditioned under a 12 hours light/dark cycle in macrolon boxes with enriched environment and free access to water and food. 12.5 mg/kg of muFAP-OX40iMab (P1AD4396-005) were injected at day 1, 4 and 8 intravenously to the group 2 (n=10 mice) and at day 1, 4, 8, 11, 15, 18 and 22 to the group 3 (n=10 mice) respectively. The dosage of (2S,4R)-4-[4-(1-methyl-1H-pyrazol-4-yl)-2-trifluoromethyl-benzenesulfonyl]-1-(1-trifluoromethyl-cyclopropanecarbonyl)-pyrrolidine-2-carboxylic acid (1-cyano-cyclopropyl)-amide consumption was 40 mg/kg/day. […]
(§1) Nunc Maxisorp flat-bottom 96 well ELISA plates were coated with 100 μl per well of FAP(28H1)-OX40(49B4) PGLALA (P1AD4523) or anti OX40 moIgG2a (P1AD4561) respectively at 5 μg/mL in NaHCO3100 mM buffer overnight at +4° C. […] 100 μl of substrate P-nitrophenyl phosphate ready to use (Life Technologies, Cat no 002212) were added per well and after 10 min incubation at room temperature, the OD at 405 nm was read as an end-point measurement with a Versamax ELISA reader.

[2] = test system: IgG response to murine surrogate PD-L1; assay: ADA against murine surrogate PD-L1 in wild-type mice, ELISA (Example 7); type: in vivo, C57BL/6 mice; conditions: 40 mg/kg/day via food admix from one week before first immunization until day 23
Description: 10-week-old female mice C57BL/6 were purchased from Charles River Laboratories (Germany) and housed at the animal facilities in room with air-conditioned under a 12 hours light/dark cycle in macrolon boxes with enriched environment and free access to water and food. 10 mg/kg of muPD-L1 (P1AE4930-001) were injected at day 1, 8 and 15 intravenously to the group 4 (n=10 mice) and at day 1, 8, 15 and 22 to the group 5 (n=10 mice) respectively. The dosage of (2S,4R)-4-[4-(1-methyl-1H-pyrazol-4-yl)-2-trifluoromethyl-benzenesulfonyl]-1-(1-trifluoromethyl-cyclopropanecarbonyl)-pyrrolidine-2-carboxylic acid (1-cyano-cyclopropyl)-amide consumption was 40 mg/kg/day. (2S,4R)-4-[4-(1-methyl-1H-pyrazol-4-yl)-2-trifluoromethyl-benzenesulfonyl]-1-(1-trifluoromethyl-cyclopropanecarbonyl)-pyrrolidine-2-carboxylic acid (1-cyano-cyclopropyl)-amide was given via food admix (Ssniff Spezialdiäten, Germany) daily from one week before the first muPD-L1 immunization until day 23 to the group 5. […]
as §1, with “of” for “of FAP(28H1)-OX40(49B4) PGLALA (P1AD4523) or”, “muPD-L1 (P1AE4930-001)” for “OX40 moIgG2a (P1AD4561) respectively”

Cn1cc(-c2ccc(S(=O)(=O)[C@@H]3C[C@@H](C(=O)NC4(C#N)CC4)N(C(=O)C4(C(F)(F)F)CC4)C3)c(C(F)(F)F)c2)cn1 [cathepsin S inhibitor, (2S,4R)-4-[4-(1-methyl-1H-pyrazol-4-yl)-2-trifluoromethyl-benzenesulfonyl]-1-(1-trifluoromethyl-cyclopropanecarbonyl)-pyrrolidine-2-carboxylic acid (1-cyano-cyclopropyl)-amide]
ADA specific to FAP (VHVL) domain of murine surrogate FAP-OX40 [1]: prevents ADA
OX40-specific ADA to murine surrogate FAP-OX40 [1]: prevents ADA
ADA to mPD-L1 [2]: significantly reduced ADA to mPD-L1
